Where a name gives a salt, the structure may show the parent alone.

Results on 28 molecules are retold here after patent US20220226299A1 (NIPPON CHEMIPHAR CO., LTD., priority 2019, published 2022).

For the experiment, the target named is T1, human Cav3.2 channels (Homo sapiens, UniProt O95180).
T1 construct: human Cav3.2 channel ORF (Open Reading Frame) gene; expressed in transfected cells; host or cells: HEK293 cells (ATCC No. CRL-1573), pcDNA3.1(+) plasmid
Put plainly: T-type calcium blocking action: intracellular calcium (Fluo-4 AM fluorescence) in HEK293 cells steadily expressing human Cav3.2 channels. The format is cell-based. The settings on record: HEK293 cells expressing human Cav3.2; KCl-stimulated calcium influx, Fluo-4 fluorescence; Tables 1 to 3. From the text:
T-Type Calcium Blocking Action
(1) Construction of Cells Steadily Expressing Human Cav3.2 Channels
A sequence obtained by adding HindIII site and a kozak sequence (GCCACC) to the 5′-side of human Cav3.2 channel ORF (Open Reading Frame) gene and adding a KpnI site to the 3′-side of the gene, was incorporated into pcDNA3.1(+) (Thermo Fisher Scientific, #V790-20), and the plasmid was introduced into HEK293 cells (ATCC No. CRL-1573) according to the protocol of FuGENE (registered trademark) HD Transfection Reagent (Promega, #E2311).
(2) Method for Measuring Intracellular Calcium Concentration
The cells steadily expressing human Cav3.2 channels produced by testing method (1) were seeded on a 96-well plate (Dulbecco's modified Eagle medium (DMEM) medium containing 10% fetal bovine serum (FBS) was used as a medium). The cells were seeded and cultured for 48 hours under conditions of 37° C. and 5% CO2. Thereafter, the cells were washed with buffer A in order to remove the medium. Each well was treated with 80 μL of a fluorescent dye solution produced by mixing 22 μg of a fluorescent calcium indicator, Fluo-4 AM (Dojindo Laboratories, #F311), 20 μL of DMSO, 1 μL of 10% Pluronic F-127 (Thermo Fisher Scientific, #P6866), and 4 mL of buffer A. The cells were allowed to stand for 45 minutes at room temperature under light-shielded conditions, and then washed with buffer B in order to completely replace the solution. 70 μL of DMSO having the same concentration as that of a test compound as a negative control and 70 μL of a mixture containing 1 μM of a known blocker RQ-00311651 and the test compound as a positive control were each added to each well in a form of being contained in the buffer B. The test compound was dissolved in 100% DMSO and added at a final concentration of 0.1%. Then, the cells were further allowed to stand at room temperature under light-shielded conditions for 15 minutes and placed in a microplate reader EnVision (PerkinElmer). Background fluorescence was measured in each well, and then a 5 μg/mL grammicidin solution was added to buffer B at 10 μL/well. After 90 seconds, baseline fluorescence was measured. Thereafter, 83.8 mM KCl was added to buffer B at 20 μL/well, and an increase in fluorescence caused by calcium influx generated by the stimulus was measured for 10 seconds. A blocking percentage was calculated from a maximum fluorescence increase value from a baseline, a logarithmic value of a compound concentration and blockery activity were plotted, and thereby an IC50 value was calculated. In the measurement, fluorescence at 510 nm that was emitted when the cells were irradiated with excitation light at 485 nm was observed.
Buffer A: 140 mM NaCl, 5 mM KCl, 1 mM MgCl2, 0.5 mM CaCl2, 10 mM Glucose, 10 mM HEPES, pH 7.3
Buffer B: 137.9 mM Choline-Cl, 4.1 mM KCl, 1 mM MgCl2, 0.5 mM CaCl2, 10 mM Glucose, 10 mM HEPES, pH 7.3

T1 sequence (O95180 whole entry): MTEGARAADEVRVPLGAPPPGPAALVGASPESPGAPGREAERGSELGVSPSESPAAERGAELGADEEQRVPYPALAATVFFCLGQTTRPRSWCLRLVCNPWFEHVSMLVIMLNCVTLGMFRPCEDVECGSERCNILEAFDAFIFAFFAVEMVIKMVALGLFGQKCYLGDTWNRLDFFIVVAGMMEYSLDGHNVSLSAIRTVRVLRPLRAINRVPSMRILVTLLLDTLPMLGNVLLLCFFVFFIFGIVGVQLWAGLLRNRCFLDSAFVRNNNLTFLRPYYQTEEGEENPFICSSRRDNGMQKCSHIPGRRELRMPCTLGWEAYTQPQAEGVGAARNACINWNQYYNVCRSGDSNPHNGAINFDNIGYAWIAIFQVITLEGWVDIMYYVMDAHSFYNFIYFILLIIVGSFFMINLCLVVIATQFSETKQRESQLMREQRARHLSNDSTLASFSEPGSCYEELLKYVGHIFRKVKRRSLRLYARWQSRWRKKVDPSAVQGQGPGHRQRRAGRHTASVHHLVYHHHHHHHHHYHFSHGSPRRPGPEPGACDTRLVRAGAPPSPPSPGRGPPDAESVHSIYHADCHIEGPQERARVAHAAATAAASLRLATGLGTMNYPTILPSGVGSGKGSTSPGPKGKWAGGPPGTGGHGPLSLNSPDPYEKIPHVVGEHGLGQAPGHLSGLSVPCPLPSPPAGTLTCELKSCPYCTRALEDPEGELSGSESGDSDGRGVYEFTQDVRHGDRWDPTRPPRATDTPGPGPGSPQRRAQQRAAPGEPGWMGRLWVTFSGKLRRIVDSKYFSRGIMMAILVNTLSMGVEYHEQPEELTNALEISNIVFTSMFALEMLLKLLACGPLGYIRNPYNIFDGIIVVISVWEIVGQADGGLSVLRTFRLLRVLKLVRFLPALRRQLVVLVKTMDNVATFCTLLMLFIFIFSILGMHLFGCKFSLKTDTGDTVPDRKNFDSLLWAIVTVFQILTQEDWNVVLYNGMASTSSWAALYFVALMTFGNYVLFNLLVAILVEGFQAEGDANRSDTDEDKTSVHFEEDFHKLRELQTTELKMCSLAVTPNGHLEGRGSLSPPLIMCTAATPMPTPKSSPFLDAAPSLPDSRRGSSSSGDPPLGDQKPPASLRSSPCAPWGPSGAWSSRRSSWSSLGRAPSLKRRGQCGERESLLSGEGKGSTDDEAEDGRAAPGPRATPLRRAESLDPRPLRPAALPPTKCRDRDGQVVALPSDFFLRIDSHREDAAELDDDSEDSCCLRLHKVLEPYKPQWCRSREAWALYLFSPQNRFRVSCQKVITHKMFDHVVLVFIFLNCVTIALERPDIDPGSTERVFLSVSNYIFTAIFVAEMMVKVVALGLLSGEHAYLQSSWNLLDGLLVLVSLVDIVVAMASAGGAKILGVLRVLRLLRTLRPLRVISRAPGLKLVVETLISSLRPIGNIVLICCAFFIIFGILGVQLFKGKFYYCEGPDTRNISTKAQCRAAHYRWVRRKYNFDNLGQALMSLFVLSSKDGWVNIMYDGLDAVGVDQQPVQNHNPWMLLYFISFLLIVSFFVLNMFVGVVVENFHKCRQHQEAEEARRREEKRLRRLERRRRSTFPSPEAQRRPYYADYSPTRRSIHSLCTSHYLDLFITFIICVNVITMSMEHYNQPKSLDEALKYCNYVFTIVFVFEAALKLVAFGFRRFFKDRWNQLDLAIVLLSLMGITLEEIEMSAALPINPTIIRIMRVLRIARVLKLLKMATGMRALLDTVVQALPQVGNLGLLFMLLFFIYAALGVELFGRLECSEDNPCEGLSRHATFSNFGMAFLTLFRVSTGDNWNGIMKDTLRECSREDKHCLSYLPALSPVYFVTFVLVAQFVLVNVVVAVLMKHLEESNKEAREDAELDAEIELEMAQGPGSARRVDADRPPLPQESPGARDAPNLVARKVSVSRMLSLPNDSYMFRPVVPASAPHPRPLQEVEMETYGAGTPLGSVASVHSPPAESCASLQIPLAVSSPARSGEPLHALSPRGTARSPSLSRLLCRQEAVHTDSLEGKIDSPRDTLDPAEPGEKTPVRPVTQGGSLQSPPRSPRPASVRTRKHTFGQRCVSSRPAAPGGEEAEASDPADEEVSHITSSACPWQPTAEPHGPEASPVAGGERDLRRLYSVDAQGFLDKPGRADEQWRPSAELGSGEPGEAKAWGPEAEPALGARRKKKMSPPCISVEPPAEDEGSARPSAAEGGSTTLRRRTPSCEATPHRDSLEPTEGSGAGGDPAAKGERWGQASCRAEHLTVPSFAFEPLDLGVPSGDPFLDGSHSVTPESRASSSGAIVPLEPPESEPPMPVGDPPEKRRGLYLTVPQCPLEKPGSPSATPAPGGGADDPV

For the molecule `Cn1nnc2cc(CC(=O)N[C@@H]3CCN(c4cncc(C(F)(F)F)c4)C3)ccc21` [Example 167, (R)-2-(1-methyl-1H-benzo[d][1,2,3]triazol-5-yl)-N-(1-(5-(trifluoromethyl)pyridin-3-yl)pyrrolidin-3-yl)acetamide], the IC50 (commonly the concentration that inhibits the measured activity by half) came to 160 nM.

For the molecule `CC(C)c1ccc(CC(=O)N[C@@H]2CCN(c3cnc(C(F)(F)F)nc3)C2)cc1` [Example 3, (R)-2-(4-isopropylphenyl)-N-(1-(2-(trifluoromethyl)pyrimidin-5-yl)pyrrolidin-3-yl)acetamide], the IC50 turned out to be 850 nM.

For `O=C(Cc1ccc(C(F)(F)F)cc1)N[C@@H]1CCN(c2ccc(C(F)(F)F)nc2)C1` [Example 183, (R)-2-(4-(trifluoromethyl)phenyl)-N-(1-(6-(trifluoromethyl)pyridin-3-yl)pyrrolidin-3-yl)acetamide], the IC50 was found to be 200 nM.

On to `O=C(Cc1ccc2ncsc2c1)N[C@@H]1CCN(c2cncc(C(F)(F)F)c2)C1` [Example 157, (R)-2-(benzo[d]thiazol-6-yl)-N-(1-(5-(trifluoromethyl)pyridin-3-yl)pyrrolidin-3-yl)acetamide], for which the IC50 is 280 nM.

With `O=C(Cc1ccc2ncsc2c1)N[C@@H]1CCN(c2ccc(C(F)(F)F)nc2)C1` [Example 158, (R)-2-(benzo[d]thiazol-6-yl)-N-(1-(6-(trifluoromethyl)pyridin-3-yl)pyrrolidin-3-yl)acetamide], the IC50 came to 1100 nM.

With `O=C(Cc1ccc(N2CC3CC2CO3)cc1)N[C@@H]1CCN(c2cncc(C(F)(F)F)c2)C1` (single isomer, unassigned) [Example 165], the IC50 is 30 nM.

For `O=C(Cc1ccc(C2CC2)cc1)NC1(CO)CCN(c2cncc(C(F)(F)F)c2)C1` (stereo not shown) [Example 103, 2-(4-cyclopropylphenyl)-N-(3-(hydroxymethyl)-1-(5-(trifluoromethyl)pyridin-3-yl)pyrrolidin-3-yl)acetamide], the IC50 is 140 nM.

For `O=C(Cc1ccc2[nH]nnc2c1)N[C@@H]1CCN(c2ccc(C(F)(F)F)nc2)C1` [Example 164, (R)-2-(1H-benzo[d][1,2,3]triazol-5-yl)-N-(1-(6-(trifluoromethyl)pyridin-3-yl)pyrrolidin-3-yl)acetamide], the IC50 is 2900 nM.

As to `COc1cccc(N2CC[C@@H](NC(=O)Cc3ccc(C4CC4)cc3)C2)c1` [Example 175, (R)-2-(4-cyclopropylphenyl)-N-(1-(3-methoxyphenyl)pyrrolidin-3-yl)acetamide], the IC50 came to 490 nM.

Take `O=C(Cc1ccc(C2CC2)cc1)N[C@@H]1CCN(c2cccc(O)c2)C1` [Example 178, (R)-2-(4-cyclopropylphenyl)-N-(1-(3-hydroxyphenyl)pyrrolidin-3-yl)acetamide]: the 50% inhibitory concentration (IC50) is 590 nM.

Take `O=C(Cc1ccc(C(F)(F)F)cc1)NC1(C(F)(F)F)CCN(c2cncc(C(F)(F)F)c2)C1` (stereo not shown) [Example 162, N-(3-(trifluoromethyl)-1-(5-(trifluoromethyl)pyridin-3-yl)pyrrolidin-3-yl)-2-(4-(trifluoromethyl)phenyl)acetamide]: the half-maximal inhibitory concentration (IC50) stood at 560 nM.

With `O=C(N[C@@H]1CCN(c2nc3ccc(F)cc3s2)C1)[C@H]1C[C@@H]1c1nc2ccccc2[nH]1` [Example 72, (1S,2S)-2-(1H-benzo[d]imidazol-2-yl)-N—((R)-1-(6-fluorobenzo[d]thiazol-2-yl)pyrrolidin-3-yl)cyclopropane-1-carboxyamide], the half-inhibitory concentration (IC50) amounted to 210 nM.

`Cn1ccc2cc(CC(=O)N[C@@H]3CCN(c4cncc(C(F)(F)F)c4)C3)ccc21` [Example 139, (R)-2-(1-methyl-1H-indol-5-yl)-N-(1-(5-(trifluoromethyl)pyridin-3-yl)pyrrolidin-3-yl)acetamide]: the IC50 is 5.4 nM.

As to `O=C(Cc1ccc(N2CCCCC2=O)cc1)N[C@@H]1CCN(c2cncc(C(F)(F)F)c2)C1` [Example 96, (R)-2-(4-(2-oxopiperidin-1-yl)phenyl)-N-(1-(5-(trifluoromethyl)pyridin-3-yl)pyrrolidin-3-yl)acetamide], the IC50 is 410 nM.

`COc1cc(OC)nc(N2CC[C@@H](NC(=O)Cc3ccc(C4CC4)cc3)C2)n1` [Example 180, (R)-2-(4-cyclopropylphenyl)-N-(1-(4,6-dimethoxypyrimidin-2-yl)pyrrolidin-3-yl)acetamide]: the IC50 came out at 2100 nM.

Take `O=C(N[C@@H]1CCN(c2cncc(C(F)(F)F)c2)C1)[C@H]1C[C@@H]1c1nc2cc(F)c(F)cc2o1` [Example 45]: the IC50 came to 11 nM.

Consider `O=C(Cc1ccc2ocnc2c1)N[C@@H]1CCN(c2cncc(C(F)(F)F)c2)C1` [Example 152, (R)-2-(benzo[d]oxazol-5-yl)-N-(1-(5-(trifluoromethyl)pyridin-3-yl)pyrrolidin-3-yl)acetamide], for which the IC50 turned out to be 1300 nM.

As for `CC(C)c1ccc(CC(=O)NC2CN(c3ccc(C(F)(F)F)nc3)C2)cc1` [Example 118, 2-(4-Isopropylphenyl)-N-(1-(6-(trifluoromethyl)pyridin-3-yl)azetidin-3-yl)acetamide], the IC50 came out at 2100 nM.

In the case of `CN(C)C(C(=O)N[C@@H]1CCN(c2cncc(C(F)(F)F)c2)C1)c1ccc(C2CC2)cc1` (stereo partly drawn) [Example 138, 2-(4-cyclopropylphenyl)-2-(dimethylamino)-N—((R)-1-(5-(trifluoromethyl)pyridin-3-yl)pyrrolidin-3-yl)acetamide hydrochloride], the IC50 was 690 nM.

In the case of `O=C(N[C@@H]1CCN(c2cncc(C(F)(F)F)c2)C1)C1CC1c1ccc(Cl)cc1` (single isomer, unassigned) [Example 108A], the IC50 stood at 5.7 nM.

For the molecule `O=C(Cc1ccc(C(F)(F)F)cc1F)N[C@@H]1CCN(c2cncc(C(F)(F)F)c2)C1` [Example 141, (R)-2-(2-fluoro-4-(trifluoromethyl)phenyl)-N-(1-(5-(trifluoromethyl)pyridin-3-yl)pyrrolidin-3-yl)acetamide], the IC50 came out at 180 nM.

With `Cn1nnc2cc(CC(=O)N[C@@H]3CCN(c4ccc(C(F)(F)F)nc4)C3)ccc21` [Example 168, (R)-2-(1-methyl-1H-benzo[d][1,2,3]triazol-5-yl)-N-(1-(6-(trifluoromethyl)pyridin-3-yl)pyrrolidin-3-yl)acetamide], the IC50 was determined as 170 nM.

On to `O=C(Cc1ccc(C2CC2)cc1)N[C@@H]1CCCN(c2cncc(C(F)(F)F)c2)C1` [Example 129, (R)-2-(4-cyclopropylphenyl)-N-(1-(5-(trifluoromethyl)pyridin-3-yl)piperidin-3-yl)acetamide], for which the half-maximal inhibitory concentration (IC50) came to 550 nM.

`O=C(Cc1ccc(C2CC2)cc1)N[C@H]1CN(c2cncc(C(F)(F)F)c2)C[C@@H]1F` [Example 28, 2-(4-cyclopropylphenyl)-N-((3S,4S)-4-fluoro-1-(5-(trifluoromethyl)pyridin-3-yl)pyrrolidin-3-yl)acetamide]: the IC50 was determined as 200 nM.

For `O=C(Cc1ccc(OCC(F)(F)F)cc1)N[C@@H]1CCN(c2cncc(C(F)(F)F)c2)C1` [Example 116, (R)-2-(4-(2,2,2-trifluoroethoxy)phenyl)-N-(1-(5-(trifluoromethyl)pyridin-3-yl)pyrrolidin-3-yl)acetamide], the IC50 was found to be 40 nM.

For the molecule `Nc1ccc(CC(=O)N[C@@H]2CCN(c3cncc(C(F)(F)F)c3)C2)cc1` [Example 33, (R)-2-(4-aminophenyl)-N-(1-(5-(trifluoromethyl)pyridin-3-yl)pyrrolidin-3-yl)acetamide], the IC50 is 1000 nM.

With `C[C@@]1(NC(=O)Cc2ccc(N3CCOCC3)cc2)CCN(c2cncc(C(F)(F)F)c2)C1` [Example 147, (R)—N-(3-methyl-1-(5-(trifluoromethyl)pyridin-3-yl)pyrrolidin-3-yl)-2-(4-morpholinophenyl)acetamide], the IC50 is 170 nM.

Take `Cc1nccnc1-c1ccc(CC(=O)N[C@@H]2CCN(c3cncc(C(F)(F)F)c3)C2)cc1` [Example 132, (R)-2-(4-(3-methylpyrazin-2-yl)phenyl)-N-(1-(5-(trifluoromethyl)pyridin-3-yl)pyrrolidin-3-yl)acetamide]: the IC50 was 190 nM.
